The results in this text go back to patent US8815946B2, “Inhibition of proliferation and fibrotic response of activated corneal stromal cells” (University of Pittsburgh—of the Commonwealth System of …, priority 2008, dated 2014).

Holding throughout (type): cell-based
For assay [1], the system named is Ki67. Nature of the assay: Ki67 staining of activated rabbit corneal keratocytes. The settings on record: bFGF (40 ng/ml)+HS (5 μg/ml), 15 mM EP, two days. Here is the method:
FIGS. 18A-18B. Rabbit corneal keratocytes were activated with bFGF (40 ng/ml)+HS (5 μg/ml) without EP (FIG. 18A) or with 15 mM EP (FIG. 18B) and after two days the cells were triple stained with anti-Ki67 antibodies (yellow), phalloidin (red, actin filaments) and DAPI (blue, nucleus).
As described in Example 1, corneal stromal cells were isolated from rabbit corneas and cultured using the same procedures. The keratocytes in serum free media were treated with b-FGF (40 ng/ml)+HS (5 μg/ml) with or without 15 mM EP or 1, 2.5 or 5 mM following EP derivatives: 2-oxopropionic acid 3-methoxyphenyl ester, 2-oxopropionic acid 2-ethoxyethyl ester, 2-oxopropionic acid 2-chloroethyl ester, 2-oxopropionic acid isopropyl ester, 2-oxopropionic acid butyl ester, 2-oxopropionic acid p-tolyl ester, 2-oxopropionic acid tert-butyl ester. Two days following the treatments, the cells were fixed and stained for Ki67 (a nuclear antigen expressed during the G1/S or S phase of the cell cycle) as described supra. The relative levels of the expression of specific proteins were analyzed by Western blot analyses of the cell lysates as described supra.

Assay [2] concerns normal human corneal fibroblasts. The experiment in a line: Cell proliferation analysis, human corneal stromal cells. Here is the method:
FIGS. 1A-1C. Effect of ethyl pyruvate on the growth of human corneal stromal cells. Corneal stromal cells in P2 growing in DMEM/F12 with 10% FBS were subcultured into desired number of 35 mm tissue culture dishes. After 24 hrs of incubation, the media were replaced with DMEM/F12 medium containing 1% FBS with or without EP (FIG. 1A) or with the same medium containing TGF-β1 or b-FGF/HS with or without EP (FIG. 1B and FIG. 1C, respectively). The cells in several marked regions were counted every 24 hours as described in Methods. The data points are average (±SE) from two separate experiments.
(§1) To study the effect of EP on cell proliferation, normal human corneal fibroblasts growing in DMEM/F12 with 10% FBS were subcultured into the desired number of 35 mm tissue culture dishes at a density of 5×10^4 cells/per dish. […] Several regions were marked on the bottom of the dishes and cells in marked regions were counted at 24 hr intervals for five days. Phase contrast digital micrographs of the cells in the marked fields were captured and the cells in the images were counted using MetaMorph® imaging software. The rate of proliferation was evaluated by determining the number of cells at specific time points after treatment/number of cells at the start of the treatment. […]

Assay [3] relates to cellular fibronectin. The experiment in a line: Western blot analyses of cellular fibronectin, human corneal stromal cells. The settings on record: TGF-β1, two and four days. Here is the method:
FIG. 7. Western blot analyses of cellular fibronectin. Human corneal stromal cells in P2 growing in DMEM/F12 with 10% FBS were subcultured into 60 mm tissue culture dishes. After 24 hrs of incubation, the media were replaced with DMEM/F12 medium containing 1% FBS and TGF-β1 with or without (control) different EP concentrations as indicated and incubated for two and four days (media were changed every 24 hours). The cells were extracted in RIPA buffer and the extracts containing 5 μg of total proteins were loaded per lane for Western blot analysis.
Keratocytes or fibroblasts grown under different culture conditions were extracted in RIPA buffer (9.1 mM dibasic sodium phosphate, 1.7 mM monobasic sodium phosphate, 150 mM NaCl, pH, 7.4, 1% Nonidet P-40, 0.5% sodium deoxycholate, 0.1% SDS, 0.03 TIU/mL aprotinin, 1 mM sodium orthovanadate, and 100 μg/mL phenylmethylsulfonyl fluoride (PMSF)). Aliquots of cell extracts containing 50 or 100 μg protein were subjected to SDS-PAGE. […] Immunoreactive bands were detected using chemiluminescence Western chemiluminescence reagents. […]

Assay [4] concerns rabbit corneal stromal cells. Nature of the assay: Cell proliferation analysis, rabbit corneal stromal cells. The settings on record: 1% FBS, with TGF-β1 or b-FGF/HS. Here is the method:
FIG. 2. Effect of ethyl pyruvate on the growth of rabbit corneal stromal cells. Corneal stromal cells in P2 growing in DMEM/F12 with 10% FBS were subcultured into desired number of 35 mm tissue culture dishes. After 24 hrs of incubation, the media were replaced with DMEM/F12 medium containing 1% FBS without EP (labeled “Control), with EP (labeled “Control+EP”); with the same medium containing TGF-β1 without EP (labeled “TGF-β1”) or with EP (labeled “TGF-β1+EP”); or with the same medium containing b-FGF/HS without EP (labeled “FGF/HS”) or with EP (labeled “FGF/HS+EP”). The cells in several marked regions were counted every 24 hours as described in Methods. […]
as §1

SMILES strings stand for the structures.

As to `CCOC(=O)C(C)=O` [ethyl pyruvate], the “Ki67 positive cells (staining, qualitative)” value in assay [1] is “only a few Ki67 positive cells”. The cell number result in assay [2] (1% FBS with or without TGF-β1 or b-FGF/HS, 10 mM and 15 mM EP, counted every 24 hours) is reported as “no significant increases in cell number”. Besides, in assay [2] (10-20 mM in the medium), the “proliferation of human corneal fibroblasts and myofibroblasts” value is on record as “inhibited proliferation”. Further, the “downregulation of fibronectin by Western blot of cell extracts (including the matrix)” value in assay [3] is listed as “confirmed”. Moreover, the “proliferation of rabbit stromal cells” value in assay [4] was “inhibited proliferation”.
